Assay results taken from patent publication US20080070890A1, “Spirocyclic Azetidinone Compounds and Methods of Use Thereof” (priority 2006, published 2008).

Target: TRPV1 (Homo sapiens, UniProt Q8NER1)
Experiment: cell-based
Procedure: Combine 42 μL of dye mixture with 11 mL of FLIPR buffer/96-well plate.
Laser is adjusted upwards for an average signal≧10,000/well and less than 10% variability.

Chain of TRPV1 (Q8NER1 whole entry, species assumed): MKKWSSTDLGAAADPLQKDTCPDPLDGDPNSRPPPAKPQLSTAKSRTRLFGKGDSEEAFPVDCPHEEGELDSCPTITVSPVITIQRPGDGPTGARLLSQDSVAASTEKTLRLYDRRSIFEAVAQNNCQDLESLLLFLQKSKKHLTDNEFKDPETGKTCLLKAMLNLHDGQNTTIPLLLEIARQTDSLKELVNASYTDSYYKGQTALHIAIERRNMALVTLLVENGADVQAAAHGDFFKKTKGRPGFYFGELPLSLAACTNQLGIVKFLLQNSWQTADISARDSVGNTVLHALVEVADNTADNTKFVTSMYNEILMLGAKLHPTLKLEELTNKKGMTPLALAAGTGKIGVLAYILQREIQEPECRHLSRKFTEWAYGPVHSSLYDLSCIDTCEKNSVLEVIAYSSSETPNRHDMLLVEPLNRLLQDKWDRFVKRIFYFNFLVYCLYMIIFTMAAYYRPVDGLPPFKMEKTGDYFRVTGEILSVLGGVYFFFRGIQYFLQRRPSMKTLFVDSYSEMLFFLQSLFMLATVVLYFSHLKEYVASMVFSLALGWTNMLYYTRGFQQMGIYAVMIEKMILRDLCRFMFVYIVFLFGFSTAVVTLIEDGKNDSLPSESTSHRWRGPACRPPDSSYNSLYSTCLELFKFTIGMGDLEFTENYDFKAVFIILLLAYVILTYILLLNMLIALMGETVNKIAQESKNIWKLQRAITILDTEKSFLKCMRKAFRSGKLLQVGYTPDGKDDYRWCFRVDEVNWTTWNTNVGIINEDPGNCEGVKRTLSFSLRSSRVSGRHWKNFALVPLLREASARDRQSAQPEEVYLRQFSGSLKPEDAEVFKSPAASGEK

Oc1cc2c(cc1O)CN(C(=S)NCCc1ccc(Cl)cc1)CCC2 [capsazepine]
IC50: ~500 nM
